≈ marks a conversion by molar mass, not a printed value.
System: K562
Assay: Cytotoxicity against human K562 cells
Format: functional
Conditions: read-out: LC50 (the source's name)

| SMILES | CC50 |
| --- | --- |
| C=CCCCCC(C)CCCCCC#CCCC(OC)C(=O)OC(=O)C(CCC#CCCCCCC(C)CCCCC=C)OC (configuration not stated) | 62.5 µg/mL (≈ 99.7 µM) |
| C=CCCCCC(C)CCCCCC#CCCCC(=O)O (configuration not stated) | 43.5 µg/mL (≈ 149 µM) |
